These results are taken from patent US6403581B1, “Method of inhibition of farnesyl-protein transferase using substituted benz (cd) indol-2-imine and-amine derivatives” (American Cyanamid Company, priority 2000, dated 2002).

Counter-ions that a name gives are not always drawn.

The target in data set [1] is T1, farnesyl-protein transferase (FPTase) (Homo sapiens, UniProt P49354+P49356). The experiment in a line: in vitro FPTase inhibition, K-Ras as substrate for farnesylation. The data set is classed as biochemical. As to conditions: K-Ras used as substrate for farnesylation. As for the experimental part:
(§1) Enzyme test procedure: The FPTase inhibition in vitro assay was performed according to the method as described by James, G. L., Brown, M. S., and Goldstein, J. L., Methods in Enzymology, 1995, 255, 38-46; and Garcia, M. A., et al., J. Biol. Chem., 1993, 268, 18415-18420.
(§2) Materials—Purified FPTase (Moomaw, J. F. and Casey, P. J., J. Biol. Chem., 1992, 267, 17438-17443), purified His6-Ras, inhibitor compounds at 10 mg/ml or 10 mM in 100% DMSO, ^3H-FPP (50,000 dpm/pmol) Amersham, TCA/SDS (6%/2%), TCA (6%), Glass fiber filters ([…]), vacuum manifold or 96 well filtration plates.
(§3) Methods—1. Dilute FPTase inhibitors from stock solutions to 2.5× in 2.5% DMSO, 10 mM DTT, 0.5% octyl-B-glucoside. 2. Solution #1 is added to FPTase reaction in a volume of […]. 3. Standard reaction mix, […], contains 50 mM Tris (7.5),[…], 3 mM MgCl2, 20 mM KCl, 5 mM DTT, 0.2% octyl-B-glucoside, 1% DMSO, […], 10 ng FPTase, and various concentrations of FPTase inhibitors. 4. Incubate for 30-90 min at 25° C. 5. Stop reactions with TCA/SDS (6%/2%), hold at 4° C. for 45-60 min. 6. Filter by manifold or 96 well plate, wash filter 3-5× with TCA (6%). 7. Add scintillant to filters, measure ^3H-FPP incorporation into Ras protein.
(§4) Analysis of Results—Percent inhibition by test compounds is determined by the following:
(§5) (cpm from precipitated Ras with test compounds)−(background cpm)×100=% inhibition.
(§6) (cpm from precipitated Ras without test compounds)−(background cpm)

The target in data set [2] is T1, farnesyl-protein transferase (FPTase). Kind of data set: in vitro FPTase inhibition, H-Ras as substrate for farnesylation. The data set is classed as biochemical. The settings on record: H-Ras used as substrate for farnesylation. As for the experimental part:
as §1, §2, §3, §4, §5, §6

For “N-(1-Hexylbenz[cd]indol-2(1H)-ylidene)-3-pyridinebutanamine, Fumarate (2:3) [Example 8]”, the IC50 in data set [1] is above 10000 nM; in data set [2] it was 2400 nM. Compound `c1ccc(CN2C(=NCCCn3ccnc3)c3cccc4cccc2c34)cc1` [Example 10, N-[1-(Phenylmethyl)benz[cd]indol-2(1H)-ylidene]-1H-imidazole-1-propanamine, Fumarate (1:2)] gave an IC50 in data set [2] of 650 nM. In other words, the sub-micromolar range.

In turn, `Clc1ccc(CN2C(=NCCCn3ccnc3)c3cccc4c(I)ccc2c34)cc1` [Example 20, N-(1-(4-Chlorobenzyl)-6-iodobenzo[cd]indol-2-(1H)-ylidene)-3-(1H-imidazol-1-yl)-1-propanamine] came in with an IC50 in data set [2] of 900 nM. On the same count and under the same terms, to `Clc1ccc(CN2C(=NCCCn3ccnc3)c3cccc4cccc2c34)cc1` [Example 15, N-[1-[(4-Chlorophenyl)methyl]benz[cd]indol-2(1H)-ylidene]-1H-imidazole-1-propanamine] belongs 180 nM. Take `CCCCCCCCN(CCCn1ccnc1)C1=Nc2cccc3cccc1c23` [Example 1, N-[3-(1H-Imidazol-1-yl)-propyl]-N-octyl-benz[cd]indol-2-amine, Fumarate (1:2)]: the IC50 in data set [1] is 8000 nM; in data set [2] it was 1200 nM.

Regarding `c1ccc(CCCN2C(=NCCCn3ccnc3)c3cccc4cccc2c34)cc1` [Example 11, N-[1-(3-Phenylpropyl)benz[cd]indol-2(1H)-ylidene]-1H-imidazole-1-propanamine, Fumarate (1:2)], the IC50 is 9500 nM in data set [1] and 600 nM in data set [2].

For the compound `CCCCCCN1C(=NCCCn2ccnc2)c2cccc3cccc1c23` [Example 7, N-(1-Hexylbenz[cd]indol-2(1H)-ylidene)-1H-imidazole-1-propanamine, Fumarate (1:2)], the IC50 in data set [1] is above 10000 nM; in data set [2], 1800 nM.

With `c1cc2c3c(cccc3c1)N(CCCN1C(=NCCCn3ccnc3)c3cccc4cccc1c34)C2=NCCCn1ccnc1` [Example 6, N,N′-[1,3-Propanediylbis(benz[cd]indol-1(2H)-yl-2-ylidene)]bis-1H-imidazole-1-propanamine], the IC50 in data set [1] was above 10000 nM; in data set [2], 2250 nM.

Compound `Ic1ccc2c3c(cccc13)C(=NCc1ccccc1)N2` [Example 22, N-Benzyl-N-(6-iodobenzo[cd]indol-2(1H)-ylidene)amine] showed a melting point of 160 to 163 °C. The compound `Ic1ccc2c3c(cccc13)C(=NCCCn1ccnc1)N2` [Example 21, 3-(1H-Imidazol-1-yl)-N-(6-iodobenzo[cd]indol-2(1H)-ylidene)-1-propanamine] had a melting point of 185 to 188 °C. As for `COc1cccc(CN2C(=NCCCn3ccnc3)c3cccc4cccc2c34)c1` [Example 13, N-[1-[(3-Methoxyphenyl)methyl]benz[cd]indol-2(1H)-ylidene]-1H-imidazole-1-propanamine], the figures for the IC50 in data set [1] and in data set [2] were above 10000 nM and 400 nM, respectively. For `c1ccc(N2C(=NCCCn3ccnc3)c3cccc4cccc2c34)cc1` [Example 16, N-(1-Phenylbenz[cd]indol-2(1H)-ylidene)-1H-imidazole-1-propanamine], the IC50 in data set [1] was above 10000 nM; in data set [2], 2500 nM. Turning to `c1ccc(OCCCN2C(=NCCCn3ccnc3)c3cccc4cccc2c34)cc1` [Example 12, N-[1-(3-Phenoxypropyl)benz[cd]indol-2-(1H)-ylidene]-1H-imidazole-1-propanamine, Dihydrochloride], the half-maximal inhibitory concentration (IC50) in data set [2] was found to be 1500 nM. This counts as single-digit micromolar. Take `c1cc2c3c(cccc3c1)C(N1CCC(Cn3ccnc3)CC1)=N2` [Example 17, 2-[4-(1H-Imidazol-1-ylmethyl)-1-piperidinyl]-benz[cd]indole, Monohydriodide]: the values for the IC50 in data set [1] and in data set [2] were above 10000 nM and 2000 nM, respectively. The corresponding values for `CN1C(=NCCCn2ccnc2)c2cccc3c(CO)ccc1c23` [Example 3, 1,2-Dihydro-2-[[3-(1H-imidazol-1-yl)propyl]imino]-1-methyl-benz[cd]indole-6-methanol, Fumarate (1:1)] are above 10000 nM and 2500 nM.

Regarding `Clc1ccc2c3c(cccc13)C(=NCCCn1ccnc1)N2Cc1ccccc1` [Example 18, N-[6-Chloro-1-(phenyl-methyl)benz[cd]indol-2(1H)-ylidene]-1H-imidazole-1-propanamine], the half-maximal inhibitory concentration (IC50) in data set [1] is above 10000 nM; in data set [2], 800 nM. Take `Clc1ccc2c3c(cccc13)C(=NCCc1cccnc1)N2Cc1ccccc1` [Example 19, N-[6-Chloro-1-(phenylmethyl)benz[cd]indol-2(1H)-ylidene]-3-pyridinethanamine]: the IC50 is above 10000 nM in data set [1] and 100 nM in data set [2]. Turning to `c1cncc(CN2C(=NCCCn3ccnc3)c3cccc4cccc2c34)c1` [Example 9, N-[1-(3-Pyridinylmethyl)benz[cd]indol-2(1H)-ylidene]-1H-imidazole-1-propanamine], the results for the half-inhibitory concentration (IC50) in data set [1] and in data set [2] were above 10000 nM and 2000 nM, respectively. In turn, `Ic1ccc2c3c(cccc13)C(NCCCCn1ccnc1)=N2` [Example 2, N-[4-(1H-Imidazol-1-yl)-butyl]-6-iodo-benz[cd]indol-2-amine] yielded an IC50 in data set [2] of 6700 nM.

In the case of `FC(F)(F)c1cccc(CN2C(=NCCCn3ccnc3)c3cccc4cccc2c34)c1` [Example 14, N-[1-[[3-(Trifluoromethyl)phenyl]methyl]benz[cd]indol-2(1H)-ylidene]-1H-imidazole-1-propanamine], the IC50 in data set [1] was 8500 nM; in data set [2], 200 nM. In the case of `N#CCCCCN1C(=NCCCn2ccnc2)c2cccc3cccc1c23` [Example 5, 2-[[3-(1H-Imidazol-1-yl)propyl]imino]-benz[cd]indole-1(2H)-pentanenitrile], the 50% inhibitory concentration (IC50) in data set [1] is 4800 nM; in data set [2], 320 nM.

With `c1ccc(CN2C(=NCCCCn3ccnc3)c3cccc4cccc2c34)cc1` [Example 4, N-[1-(Phenylmethyl)benz[cd]indol-2(1H)-ylidene]-1H-imidazole-1-butanamine, Fumarate (1:2)], the IC50 in data set [1] was above 10000 nM; in data set [2], 2800 nM.
